US20260250318A1, “COMPOSITIONS AND METHODS FOR CROSSING THE BLOOD BRAIN BARRIER” (VOYAGER THERAPEUTICS, INC., priority 2022, published 2026)

Tested on: brains, heart, liver, muscle, and DRG of the NHPs
Experiment: Maturation of TTM-001 and TTM-002 capsids, NGS enrichment in NHP tissues
Type: in vivo
From the text: This Example describes maturation of the AAV9 capsid variants, TTM-001 (SEQ ID NO: 981 (amino acid) and 983 (DNA), comprising SEQ ID NO: 941 (encoded by SEQ ID NO: 942)) and TTM-002 (SEQ ID NO: 982 (amino acid) and 984 (DNA), comprising SEQ ID NO: […] (encoded by SEQ ID NO: 944)) in NHPs to further enhance their transduction and biodistribution in the central nervous system as well as other tissues, and evolve the AAV capsid variants to provide further cross-species compatibility. Two approaches were used to mature the TTM-001 and TTM-002 capsid sequences in order to randomize and mutate within and around the peptide insert comprised within loop IV of the capsid variant. […] In the first maturation approach, sets of three contiguous amino acids were randomized across the mutagenesis region in the TTM-001 and TTM-002 sequences, which spanned from position 450 to position 466, numbered according to SEQ ID NO: 981 and 982. In the second maturation approach, mutagenic primers were used to introduce point mutations at a low frequency, scattered across the mutagenesis region in the TTM-001 and TTM-002 sequences ranging from position 449 to position 466, numbered according to SEQ ID NO: 981 and 982. AAV capsid variants arising from each maturation approach for TTM-001 and TTM-002 were pooled together, for subsequent testing and characterization in NHPs.
The library of pooled matured AAV capsid variants generated using the first maturation approach and the second maturation approach for the TTM-001 and TTM-002 AAV capsid variants were injected into two NHPs. […] Following RNA recovery and RT-PCR amplification, a systematic NGS enrichment analysis was performed to calculate the fold enrichment ratio relative to an AAV9 control, and the peptides comprised within the variants were identified.
Following the RNA recovery and NGS analysis from the second maturation approach, approximately 680,000 capsid variants were identified. The 680,000 matured capsid variants were then filtered based on samples with a raw virus count greater than 10 and a coefficient of variance (CV) of less than 1, which was calculated for each peptide across the brain samples taken from the two NHPs. […] Using this filtering criteria, this led to approximately 64,000 matured capsid variants.

[1] = NHP DRG, NGS, relative to AAV9 control
[2] = NHP brain, NGS, relative to AAV9 control
[3] = NHP heart, NGS, relative to AAV9 control
[4] = NHP liver DNA, NGS, relative to AAV9 control
[5] = NHP liver RNA, NGS, TTM-001 and TTM-002 matured AAV capsid variants, relative to AAV9 control
[6] = NHP muscle, NGS, relative to AAV9 control
[7] = NGS fold-enrichment, DRG, NHP, relative to AAV9
[8] = NGS fold-enrichment, brain, NHP, relative to AAV9
[9] = NGS fold-enrichment, heart, NHP, relative to AAV9
[10] = NGS fold-enrichment, liver DNA, NHP, relative to AAV9
[11] = NGS fold-enrichment, liver RNA, NHP, relative to AAV9
[12] = NGS fold-enrichment, muscle, NHP, relative to AAV9

| Sequence | Fold Enrichment relative to AAV9, DRG (NHP) [1] [fold] | Fold Enrichment relative to AAV9, Brain (NHP) [2] [fold] | Fold Enrichment relative to AAV9, Heart (NHP) [3] [fold] | Fold Enrichment relative to AAV9, Liver DNA (NHP) [4] [fold] | Fold Enrichment relative to AAV9, Liver RNA (NHP) [5] [fold] | Fold Enrichment relative to AAV9, Muscle (NHP) [6] [fold] | Fold Enrichment relative to AAV9, DRG (NHP) [7] [fold] | Fold Enrichment relative to AAV9, Brain (NHP) [8] [fold] | Fold Enrichment relative to AAV9, Heart (NHP) [9] [fold] | Fold Enrichment relative to AAV9, Liver DNA (NHP) [10] [fold] | Fold Enrichment relative to AAV9, Liver RNA (NHP) [11] [fold] | Fold Enrichment relative to AAV9, Muscle (NHP) [12] [fold] |
| --- | --- | --- | --- | --- | --- | --- | --- | --- | --- | --- | --- | --- |
| KTINGSGSPHCPAQNQQT | 0.000 | 0.000 | 0.000 | 1.409 | 13.359 | 0.000 | – | – | – | – | – | – |
| KTINGSGSPHCRVQNQQT | 0.000 | 0.000 | 0.000 | 1.203 | 31.043 | 0.000 | – | – | – | – | – | – |
| KTINGSGSPHFPFQNQQT | – | – | – | – | – | – | 0.000 | 0.000 | 0.000 | 3.715 | 10.322 | 0.000 |
| KTINGSGSPHFPWQNQQT | 0.000 | 0.000 | 0.000 | 1.731 | 53.587 | 0.000 | – | – | – | – | – | – |
| KTINGSGSPHFYRQNQQT | 0.000 | 0.000 | 0.000 | 9.342 | 31.724 | 0.000 | – | – | – | – | – | – |
| KTINGSGSPHGRYQNQQT | – | – | – | – | – | – | 0.000 | 0.000 | 0.000 | 0.778 | 10.028 | 0.000 |
| KTINGSGSPHIVWQNQQT | 0.000 | 0.000 | 0.000 | 6.056 | 58.021 | 0.000 | – | – | – | – | – | – |
| KTINGSGSPHKSGQNPQT | – | – | – | – | – | – | 0.000 | 0.000 | 0.000 | 11.790 | 11.014 | 0.000 |
| KTINGSGSPHLCTQNQQT | 0.000 | 0.000 | 0.000 | 2.489 | 11.176 | 0.000 | – | – | – | – | – | – |
| KTINGSGSPHLCVQNQQT | 0.000 | 0.000 | 0.000 | 1.428 | 19.030 | 0.000 | – | – | – | – | – | – |
| KTINGSGSPHLPTQNQQT | 0.000 | 0.000 | 0.000 | 3.127 | 20.704 | 0.000 | – | – | – | – | – | – |
| KTINGSGSPHLRWQNQQT | 0.000 | 0.000 | 0.000 | 9.649 | 21.014 | 0.000 | – | – | – | – | – | – |
| KTINGSGSPHLVYQNQQT | 0.000 | 0.000 | 0.000 | 1.045 | 14.196 | 0.000 | – | – | – | – | – | – |
| KTINGSGSPHMAFQNQQT | 0.000 | 0.000 | 0.000 | 0.542 | 17.644 | 0.000 | – | – | – | – | – | – |
| KTINGSGSPHPFVQNQQT | 0.000 | 0.000 | 0.000 | 1.286 | 12.091 | 0.000 | – | – | – | – | – | – |
| KTINGSGSPHPKRQNQQT | 0.000 | 0.000 | 0.000 | 2.355 | 23.055 | 0.000 | – | – | – | – | – | – |
| KTINGSGSPHPRKQNQQT | 0.000 | 0.000 | 0.000 | 3.248 | 12.249 | 0.000 | – | – | – | – | – | – |
| KTINGSGSPHPSCQNQQT | 0.000 | 0.000 | 0.000 | 2.790 | 27.796 | 0.000 | – | – | – | – | – | – |
| KTINGSGSPHQGCQNQQT | 0.000 | 0.000 | 0.000 | 1.037 | 17.676 | 0.000 | – | – | – | – | – | – |
| KTINGSGSPHRCCQNQQT | 0.000 | 0.000 | 0.000 | 2.213 | 19.084 | 0.000 | – | – | – | – | – | – |
| KTINGSGSPHRIKQNQQT | 0.000 | 0.000 | 0.000 | 3.064 | 21.720 | 0.000 | – | – | – | – | – | – |
| KTINGSGSPHRPWQNQQT | 0.000 | 0.000 | 0.000 | 4.936 | 16.869 | 0.000 | – | – | – | – | – | – |
| KTINGSGSPHRWLQNQQT | 0.000 | 0.000 | 0.000 | 6.882 | 28.147 | 0.000 | – | – | – | – | – | – |
| KTINGSGSPHRWTQNQQT | 0.000 | 0.000 | 0.000 | 0.844 | 12.490 | 0.000 | – | – | – | – | – | – |
| KTINGSGSPHSCHQNQQT | 0.000 | 0.000 | 0.000 | 8.562 | 56.242 | 0.000 | – | – | – | – | – | – |
